From patent US20220030896A2, “CHOLINE ESTER-CONTAINING COMPOSITION FOR ORAL INGESTION” (Shinshu University, priority 2016, published 2022)
One block for each compound: values may come before it.

Assays:
[1] = tested on: spontaneously hypertensive rats (SHR); details: purified compound, SHRs, single oral administration; cited from earlier work
[2] = tested on: thoracic aorta ring specimens of SHR; test: Vascular isometric tension measurement test (phenylephrine-constricted thoracic aorta rings); design: species or system rat; details: standard sample
Method: The ground eggplant samples used for the experiment were prepared as follows. […] 14-week-old male SHRs (body weight 320 to 346 g) were put to death by laparotomy and exsanguination under ether anaesthesia, and the thoracic aorta was quickly removed. The isolated aorta was immersed in physiological saline and the blood was thoroughly rinsed off, and then the connective tissue and adipose tissue attached to the blood vessel were removed in a Krebs-Henseleit solution to prepare a ring specimen with a width of about 2 to 3 mm. The resulting ring specimens were attached inside an organ bus of an isometric tension test device (UFER UC-05[…]., Kyoto) filled with Krebs-Henseleit solution of 37° C. (119 mM NaCl/4.7 mM KCl/1.1 mM KH2PO4/1.2 mM MgSO4/25 mM NaHCO3, pH 7.4) in which a mixed gas of 95% O2-5% CO2 was aerated, then a static tension of 1.0 g was applied and the ring specimens were stabilized for 60 minutes. […] The change in tension was measured and recorded by using a transducer (UFER UM-20, Iwashiya Kishimoto Ika Sangyo Co., Ltd.), the dilation rate (%) was calculated by equation (1) hereinafter, and the mean value±standard error (Mean±S. E.) was determined by repeating the test results three times. […]

humans = test: Extrapolation of effective AcCh dose from SHR to humans by Kleiber's law; design: species or system human
Excerpt: (§1) This AcCh dose at which a blood pressure-lowering effect occurred in SHRs in normal condition upon oral ingestion was extrapolated to humans using Kleiber's law (Non-Patent Document 22). According to Kleiber's law, the mammalian metabolic rate is assumed to be proportional to the ¾ power of body weight, assuming the SHR weight to be 370 g and human weight to be 60 kg, the effective dose for humans is estimated to be 45.4 times the effective dose for SHRs.
(§2) When this AcCh dose was extrapolated to humans using Kleiber's law (Non-Patent Document 22), the upper limit of the daily human effective dose was 3.36×10^−6 mol (491 μg). Therefore, the daily effective dose for humans with high blood pressure having genetic characteristics such as SHRs was estimated to be in the range of 5 to 500 μg.

[3] = tested on: spontaneously hypertensive rats (SHR); test: Repeated oral administration test of AcCh in SHR that did not fast; type: in vivo, rat; details: in SHRs, weight assumed 370 g
Excerpt: as §1, §2

[4] = Change over time of AcCh amount in aqueous pH solutions (standard sample); type: physicochemical; details: pH 4.1 to pH 3.1, after 12 days
Method: A method for stabilizing choline esters in eggplants was examined. […] Therefore, firstly, the concentration change over time of an AcCh standard sample was examined under neutral and acidic conditions. The neutral solution (pH 7.0) was a phosphate buffer solution, and the acidic solutions (pH 4.1, pH 3.6, pH 3.1, pH 2.6) were prepared by adding acetic acid; the pH solutions with an AcCh concentration of 1.9 mg/mL were allowed to remain at ambient temperature (23 to 25° C.) for 0, 3, 6, 12 days, and then the AcCh content was quantified.

[5] = tested on: spontaneously hypertensive rats (SHR); test: Single oral administration test in spontaneously hypertensive rats (tail cuff blood pressure, heart rate); type: in vivo, rat; details: SHRs after 12 hours of fasting
Method: The lyophilized eggplant powder was prepared by washing a 'Senshu' water eggplant from […], Osaka-fu with water, by sterilizing the eggplant with hypochlorous acid, and by finely grinding the edible part after lyophilisation. […] In order to compare the blood pressure-lowering effect, an administration test of an AcCh standard sample of 1.00×10^-9 mol/kg was performed in the same manner and the systolic blood pressure was measured. To a control group only water was administered under the same conditions. 0, 3, 6, 9, and 24 hours after the oral administration, systolic blood pressure, diastolic blood pressure and heart rate were measured by the tail cuff method using the non-invasive blood pressure measuring instrument Softron BP-98A (Softron Co., Ltd., Tokyo).

SMILES: CCC(=O)OCC[N+](C)(C)C [PrCh, propionylcholine]
- blood pressure-lowering effect [1]: blood pressure-lowering effect is shown

SMILES: NCCCC(=O)O [γ-aminobutyric acid (GABA), γ-aminobutyric acid]
- effect on blood vessels ([2]; 4.8 μg/mL): no effect on blood vessels was observed

SMILES: CCCC(=O)OCC[N+](C)(C)C [BuCh, butyrylcholine]
- blood pressure-lowering effect [1]: blood pressure-lowering effect is shown

- AcCh remaining [4]: ≥ 97%
SMILES: CC(=O)OCC[N+](C)(C)C [AcCh, acetylcholine]
- lower limit of the daily effective dose for humans (humans): 3.36e-08 mol
- upper limit of the daily human effective dose (humans): 3.36e-06 mol
- effective daily intake of AcCh causing a blood pressure lowering effect [3]: 3.7e-09 mol
- effective daily dose of AcCh [5]: 1e-09 mol/kg

SMILES: O=C(/C=C/c1ccc(O)c(O)c1)O[C@@H]1C[C@](O)(C(=O)O)C[C@@H](O)[C@H]1O [Chlorogenic acid]
- effect on blood vessels ([2]; 11 μg/mL): no effect on blood vessels was observed
